Source: US20050075619A1, “Container for linezolid intravenous solution” (priority 2000, published 2005)

Assay: loss of linezolid in IV aqueous solution during and following terminal moist heat sterilization in the container
Assay type: physicochemical
Details: container-solution contact surface made of at least 50% polyolefin
Procedure: The linezolid IV solution is formulated by heating water for injection from about 50 to about 65°. Next the sodium citrate, citric acid and dextrose are added and stirred until dissolved. An aqueous slurry of linezolid is added to the previous mixture and stirred until dissolved. The mixture is cooled to 25° with stirring. The pH is measured and adjusted if necessary. Last the mixture is brought to volume, if necessary, with water for injection. The mixture is filtered, filled into infusion containers, over wrapped and terminally moist heat sterilized.
When terminally moist heat sterilizing an IV solution, the solution is placed in the container in which (1) it will be stored and then transferred to the container from which it will ultimately be administered, or (2) stored and then ultimately administered from the same container to deliver the IV solution to the patient. Therefore, it is imperative that the pharmaceutically active ingredient (oxazolidinone, linezolid) not react with the container in which it is to be terminally moist heat sterilized and stored/stored-administered.
What is essential is that the container-solution contact surface material be primarily a polyolefin; the remainder of the container can be made from polyolefin or other materials. It is preferred that the container-solution contact surface is made of from about 50 to about 100% polyolefin. […]

## CC(=O)NC[C@H]1CN(c2ccc(N3CCOCC3)c(F)c2)C(=O)O1 [linezolid, (S)-N-[[3-[3-fluoro-4-(4-morpholinyl)phenyl]-2-oxo-5-oxazolidinyl]methyl]acetamide]
  loss of linezolid during and following terminal moist heat sterilization: significantly much less loss
